Data published in PubChem BioAssay (NCI).
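Tested at 5 concentrations; 48 h exposure; 96-well plates; endpoints linearly interpolated, else capped at highest concentration. Abbreviation: GI50, concentration required for 50% inhibition of growth. The concentration for full growth arrest is given as TGI.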

Experiments:
Assay in all cases: NCI anticancer screen, dose series, 48 h
[1] = test system: HOP-62 NSCLC
[2] = test system: HL-60(TB) leukemia
[3] = test system: A549 NSCLC
[4] = test system: SR leukemia
[5] = test system: K-562 leukemia
[6] = test system: UO-31 renal
[7] = test system: BT-549 breast
[8] = test system: IGROV1 ovarian
[9] = test system: HCC-2998 colon
[10] = test system: SNB-75 CNS

In the case of Nc1nc(Nc2ccccc2)sc1C(=O)c1c[nH]c2ccccc12, the TGI [1] is reported as 30.9 µM, the TGI [2] is reported as 46.2 µM and the TGI [3] is reported as 23.7 µM. The TGI [4] was 5.12 µM, the TGI [5] was 56.7 µM and the TGI [6] was 13.1 µM. The TGI [7] was 29.8 µM and the TGI [8] was 31.2 µM.
Compound Clc1ccc(Cl)c(SCCCN2CCNCC2)c1 has a TGI [9] of 12.8 µM, a TGI [1] of 41.7 µM and a TGI [2] of 40.3 µM. The TGI [3] was 44.4 µM, the TGI [5] was 39.9 µM and the TGI [6] was 30.1 µM. For the same compound, the TGI [7] was 33.6 µM, the TGI [8] was 42.2 µM and the TGI [10] was 35.3 µM.
For CCOC(=O)[C@@H]1ON2O[C@@H](OC3CCCC3(c3ccccc3)c3ccccc3)C[C@H]3OC(=O)[C@@H]1C32 (stereo partly specified), the TGI [9] was > 100 µM, the TGI [1] was > 100 µM and the TGI [2] was 60.9 µM. For the same compound, the TGI [3] was 57.4 µM, the TGI [4] was 61.4 µM and the TGI [6] was 41.1 µM. For the same compound, the TGI [8] was > 100 µM and the TGI [10] was > 100 µM.
O=C([CH-]C(=O)c1ccccc1)c1ccccc1.O=C([CH-]C(=O)c1ccccc1)c1ccccc1.[O]=[U+2]=[O] showed a GI50 [3] of 3.17 µM, a TGI [3] of 18.7 µM and a GI50 [8] of 3.33 µM. It also gave a TGI [8] of 12.6 µM.
NC(=O)c1ncn2c1NC(=O)CC2 was tested, and the TGI [9] was > 100 µM, the TGI [1] was > 100 µM and the TGI [2] was > 100 µM. For the same compound, the TGI [3] was > 100 µM, the TGI [5] was > 100 µM and the TGI [6] was > 100 µM. For the same compound, the TGI [8] was > 100 µM and the TGI [10] was > 100 µM.
For O=C(CCc1cccc(O)c1)NCCCNC(=O)CCc1cccc(O)c1, the TGI [9] was > 100 µM, the TGI [1] was > 100 µM and the TGI [3] was > 100 µM. The TGI [4] was > 100 µM, the TGI [5] was > 100 µM and the TGI [6] was > 100 µM. The TGI [7] was > 100 µM and the TGI [8] was > 100 µM.
O=C1c2cccc(NCCNCCO)c2C(=O)c2cccc(NCCNCCO)c21 gave a TGI [9] of 2.45 µM, a TGI [1] of 4.14 µM and a TGI [2] of 5.19 µM. It also gave a TGI [3] of 7.78 µM, a TGI [5] of 15 µM and a TGI [6] of 25.9 µM. For the same compound, the TGI [7] was 8.85 µM, the TGI [8] was 6.39 µM and the TGI [10] was 3.03 µM.
For C[C@]1(S(=O)(=O)c2ccccc2)C[C@H]2N(Cc3ccccc3)[C@@H]1CCC21OCCO1, the TGI [1] was > 100 µM, the TGI [2] was 32.6 µM and the TGI [3] was > 100 µM. The TGI [5] was > 100 µM, the TGI [6] was > 100 µM and the TGI [7] was > 100 µM. The TGI [8] was > 100 µM and the TGI [10] was > 100 µM.
With CC(C)(C)C(=O)C(Cc1ccccc1)C(=O)C(C)(C)C the TGI [9] was > 100 µM, the TGI [1] was > 100 µM and the TGI [2] was > 100 µM. The TGI [3] was > 100 µM, the TGI [4] was > 100 µM and the TGI [5] was > 100 µM. The TGI [6] was > 100 µM, the TGI [8] was > 100 µM and the TGI [10] was > 100 µM.
For CCCCC#CS(=O)(=O)C(F)(F)F, the TGI [9] was > 31.6 µM, the TGI [1] was > 100 µM and the TGI [2] was 62.9 µM. For the same compound, the TGI [3] was > 100 µM, the TGI [5] was > 100 µM and the TGI [6] was > 100 µM. The TGI [8] was > 100 µM and the TGI [10] was 98.3 µM.
In the case of OCC(O)C(O)C(O)/C=N/Nc1nc(O)c(/C=C2\C=Nc3ccccc32)[nH]1 (stereo unspecified), the TGI [9] is reported as > 100 µM, the TGI [1] is reported as > 100 µM and the TGI [2] is reported as > 100 µM. For the same compound, the TGI [3] was > 100 µM, the TGI [5] was > 100 µM and the TGI [7] was > 100 µM. For the same compound, the TGI [8] was > 100 µM and the TGI [10] was > 100 µM.
For COc1cc2c(cc1OC)C13CC[N+]4(C)CC5=CCOC6CC(=O)N2C1C6C5CC34[O-] (stereo unspecified), the TGI [1] was > 100 µM, the TGI [2] was > 100 µM and the TGI [3] was > 100 µM. The TGI [4] was > 100 µM, the TGI [5] was > 100 µM and the TGI [6] was > 100 µM. For the same compound, the TGI [7] was > 100 µM, the TGI [8] was > 100 µM and the TGI [10] was > 100 µM.
